According to US8765779B2, “Tricyclic derivatives and their pharmaceutical use and compositions” (Cephalon, Inc., priority 2009, dated 2014):
Where a name gives a salt, the structure may show the parent alone.

Target: T1, human 5-HT6 receptor (Homo sapiens, UniProt P50406)
T1 construct: host or cells: CHO-K1 cells, stably transfected; membranes prepared in house
Experiment: Human 5-HT6 Receptor Binding Assay ([3H]LSD displacement, scintillation beads)
Details: membranes of CHO-K1 cells with recombinant human 5-HT6, 4 nM [3H]LSD; Table 1, class symbols; read-out: h5-HT6 (Ki)

T1 sequence (P50406 whole entry): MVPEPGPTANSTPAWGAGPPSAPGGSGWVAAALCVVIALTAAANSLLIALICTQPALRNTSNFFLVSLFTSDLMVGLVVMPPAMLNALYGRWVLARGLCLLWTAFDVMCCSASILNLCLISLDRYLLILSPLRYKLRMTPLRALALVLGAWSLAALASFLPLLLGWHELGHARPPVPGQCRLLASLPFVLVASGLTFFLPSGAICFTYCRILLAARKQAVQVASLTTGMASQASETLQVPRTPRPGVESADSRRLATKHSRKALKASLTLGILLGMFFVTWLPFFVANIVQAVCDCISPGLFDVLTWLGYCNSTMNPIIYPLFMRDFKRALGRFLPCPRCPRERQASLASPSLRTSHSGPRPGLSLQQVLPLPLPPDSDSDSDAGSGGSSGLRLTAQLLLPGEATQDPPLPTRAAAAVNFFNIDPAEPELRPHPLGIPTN

SMILES	Ki
CC1(C)NCCc2c1oc1cc(S(=O)(=O)c3ccc(F)c(Cl)c3)ccc21 [Example 18, 7-[(3-chloro-4-fluorophenyl)sulfonyl]-1,1-dimethyl-1,2,3,4-tetrahydro[1]benzofuro[2,3-c]pyridine]	< 500 nM
O=S(=O)(c1ccc(Oc2ccccc2)cc1)c1ccc2c(c1)C1CCNCC1O2 (centres unmarked) [Example 173]	> 1000 nM
CC(C)c1ccc(S(=O)(=O)c2ccc3c(c2)C2CCNCC2O3)cc1 (centres unmarked) [Example 179]	< 500 nM
O=S(=O)(c1ccc(Cl)c(C(F)(F)F)c1)c1ccc2c3c(oc2c1)CNCC3 [Example 210]	< 500 nM
O=S(=O)(c1ccc2c(c1)OC1CNCCC21)c1cccc2ccccc12 (centres unmarked) [Example 114]	< 500 nM
CC1(C)NCCc2c1oc1cc(S(=O)(=O)c3ccc(F)c(F)c3)ccc21 [Example 290]	< 500 nM
O=S(=O)(c1ccc(F)cc1)c1ccc2c3c(oc2c1)CNCC3 [Example 213]	< 500 nM
O=S(=O)(c1ccc2oc3c(c2c1)CCNC3)c1cc(F)ccc1F [Example 273]	< 500 nM
CC(C)c1ccc(S(=O)(=O)c2ccc3c4c(oc3c2)CNCC4)cc1 [Example 195]	< 500 nM
CC(C)Oc1cccc(S(=O)(=O)c2ccc3c4c(oc3c2)C(C)(C(F)F)NCC4)c1 (single isomer, unassigned) [Example 34, 1-(difluoromethyl)-1-methyl-7-{[3-(propan-2-yloxy)phenyl]sulfonyl}-1,2,3,4-tetrahydro[1]benzofuro[2,3-c]pyridine]	< 500 nM
O=S(=O)(c1cccc(Br)c1)c1ccc2c3c(oc2c1)CNCC3 [Example 212, 7-[(3-bromophenyl)sulfonyl]-1,2,3,4-tetrahydro[1]benzofuro[2,3-c]pyridine]	< 500 nM
O=S(=O)(c1cccc(Br)c1)c1ccc2c(c1)OC1CNCCC21 (centres unmarked) [Example 133]	< 500 nM
O=S(=O)(c1cc[n+]([O-])cc1)c1ccc2c(c1)OC1CNCCC21 (centres unmarked) [Example 329]	> 1000 nM
CC12CCNCC1Oc1cc(S(=O)(=O)c3cccc4c3OC(F)(F)O4)ccc12 (centres unmarked) [Example 460]	< 500 nM
CC12CCNCC1Oc1ccc(OS(=O)(=O)Cc3ccc(Cl)cc3)cc12 (centres unmarked) [Example 789]	> 1000 nM
CC12CCNCC1Oc1cc(S(=O)(=O)c3ccc(F)cc3)ccc12 (centres unmarked) [Example 356]	500 to 1000 nM

SMILES	Ki
O=S(=O)(c1ccc2c3c(oc2c1)CNCC3)c1c(F)c(F)cc(F)c1F [Example 225]	< 500 nM
O=S1(=O)CCC2(CC1)NCCc1c2oc2cc(S(=O)(=O)c3cccc(F)c3)ccc12 [Example 38, 7-[(3-fluorophenyl)sulfonyl]-2′,3,3′,4,5′,6′-hexahydro-2H-spiro[1-benzofuro[2,3-c]pyridine-1,4′-thiopyran] 1′,1′-dioxide]	< 500 nM
O=S(=O)(Oc1ccc2c(c1)OC1CN(CCc3ccccc3)CCC21)c1ccc(Cl)cc1 (centres unmarked) [Example 813]	> 1000 nM
O=S(=O)(c1ccc(F)c(F)c1)c1ccc2c(c1)OC1CNCCC21 (centres unmarked) [Example 128]	< 500 nM
CC(C)Oc1cccc(S(=O)(=O)c2ccc3c4c(oc3c2)C(C)(C)NCC4)c1 [Example 15, 1,1-dimethyl-7-{[3-(propan-2-yloxy)phenyl]sulfonyl}-1,2,3,4-tetrahydro[1]benzofuro[2,3-c]pyridine]	< 500 nM
CC1NCCc2c1oc1ccc(S(=O)(=O)c3cccc(C(F)(F)F)c3)cc21 (centres unmarked) [Example 282]	< 500 nM
COc1ccc(S(=O)(=O)Oc2ccc3c(c2)C2(C)CCNCC2O3)cc1 (centres unmarked) [Example 760]	> 1000 nM
CC(C)Oc1cccc(S(=O)(=O)c2ccc3c4c(oc3c2)C2(CCCOC2)NCC4)c1 (racemic) [Example 23, 7-{[3-(propan-2-yloxy)phenyl]sulfonyl}-3,4,5′,6′-tetrahydro-2H,4′H-spiro[1-benzofuro[2,3-c]pyridine-1,3′-pyran]]	< 500 nM
O=S(=O)(c1cc(F)cc(Cl)c1)c1ccc2c(c1)OC1CNCCC21 (centres unmarked) [Example 163]	< 500 nM
CC12CCNCC1Oc1ccc(OS(=O)(=O)c3cccc(C(F)(F)F)c3)cc12 (centres unmarked) [Example 780]	> 1000 nM
CC1(C)CNC2(CCOC2)c2oc3cc(S(=O)(=O)c4cccc(F)c4)ccc3c21 (racemic) [Example 46, 7-[(3-fluorophenyl)sulfonyl]-4,4-dimethyl-3,4,4′,5′-tetrahydro-2H-spiro[1-benzofuro[2,3-c]pyridine-1,3′-furan]]	< 500 nM
O=S(=O)(c1ccc2c3c(oc2c1)CNCC3)C1CCCCC1 [Example 233]	> 1000 nM
Cc1ccc(F)cc1S(=O)(=O)c1ccc2oc3c(c2c1)CCNC3 [Example 254]	< 500 nM
CC12CCNCC1Oc1ccc(OS(=O)(=O)c3ccc(-c4cnco4)cc3)cc12 (centres unmarked) [Example 777]	> 1000 nM
O=S(=O)(c1ccccc1)c1ccc2c3c(oc2c1)C1(CCOCC1)NCC3 [Example 296]	< 500 nM

Second part, the compound after the results:

Ki	SMILES
> 1000 nM	O=S(=O)(Oc1ccc2c(c1)C1CCNCC1O2)c1ccc(OC(F)(F)F)cc1 (centres unmarked) [Example 744]
> 1000 nM	Cc1nc(S(=O)(=O)Oc2ccc3c(c2)OC2CNCCC32)cn1C (centres unmarked) [Example 645]
< 500 nM	CC(C)Oc1cc(OCCO)cc(S(=O)(=O)c2ccc3c(c2)OC2CNCCC32)c1 (centres unmarked) [Example 590]
< 500 nM	COc1ccc(S(=O)(=O)Oc2ccc3c(c2)OC2CNCCC32)cc1 (centres unmarked) [Example 650]
> 1000 nM	O=S(=O)(Oc1ccc2c(c1)C1CCNCC1O2)c1cccc2nsnc12 (centres unmarked) [Example 730]
> 1000 nM	CC1(C)NCCc2c1oc1cc(S(=O)(=O)c3cc(Cl)cnc3O)ccc21 [Example 373]
< 500 nM	CC1(C)NCCc2c1oc1cc(S(=O)(=O)c3cc[nH]c(=O)c3)ccc21 [Example 366]
< 500 nM	COc1cncc(S(=O)(=O)c2ccc3c4c(oc3c2)C2(CCOC2)NCC4(C)C)c1 (centres unmarked) [Example 454]
< 500 nM	CC(=O)N(C)CC1NCCc2c1oc1ccc(S(=O)(=O)c3cccc(F)c3)cc21 (centres unmarked) [Example 533, N-({6-[(3-Fluorophenyl)sulfonyl]-1,2,3,4-tetrahydro[1]benzofuro[2,3-c]pyridin-1-yl}methyl)-N-methylacetamide]
< 500 nM	O=S(=O)(Oc1ccc2c(c1)OC1CNCCC21)c1c(Cl)nc2sccn12 (centres unmarked) [Example 638]
> 1000 nM	O=S(=O)(c1cccc(F)c1)c1ccc2oc3c(c2c1)CCNC3C(F)(F)F (centres unmarked) [Example 511]
< 500 nM	Cc1cccc(S(=O)(=O)Oc2ccc3c(c2)C2CCNCC2O3)c1 (centres unmarked) [Example 699]
< 500 nM	[O-][S+](c1cccc(C(F)(F)F)c1)c1ccc2c3c(oc2c1)C1(CCOCC1)NCC3 (centres unmarked) [Example 297]
> 1000 nM	CC(C)S(=O)(=O)Nc1ccc2c(c1)C1CCNCC1O2 (centres unmarked) [Example 832]
> 1000 nM	[O-][S+](c1ccc2oc3c(c2c1)CCNC3)c1cc(F)cc(F)c1F (centres unmarked) [Example 443]
< 500 nM	CC1(C)NCCc2c1oc1cc(S(=O)(=O)c3cncc(Cl)c3)ccc21 [Example 376]
> 1000 nM	O=S(=O)(c1cccc(F)c1)c1ccc2oc3c(c2c1)CCN1CCCCC31 (centres unmarked) [Example 618]
< 500 nM	O=S(=O)(c1ccc2c(c1)OC1CNCCC21)c1cccc(Cl)c1F (centres unmarked) [Example 422]
> 1000 nM	O=S(=O)(Nc1ccc(Cl)c(Cl)c1)c1ccc2c(c1)C1CCNCC1O2 (centres unmarked) [Example 852]
< 500 nM	O=S(=O)(c1cccc(OCc2cnccn2)c1)c1ccc2c(c1)OC1CNCCC21 (centres unmarked) [Example 567]

Ki	SMILES
< 500 nM	O=S(=O)(c1cccc(Cl)c1)c1ccc2c3c(oc2c1)C(C1CCOCC1)NCC3 (centres unmarked) [Example 500]
< 500 nM	O=S(=O)(c1ccc2c(c1)OC1CNCCC21)c1cc(F)cc(F)c1F (centres unmarked) [Example 400]
500 to 1000 nM	CC(=O)N1CCC2c3cc(NS(=O)(=O)c4c(Cl)nc5sccn45)ccc3OC2C1 (centres unmarked) [Example 816]
< 500 nM	COc1cccc(COc2cccc(S(=O)(=O)c3ccc4c(c3)OC3CNCCC43)c2)c1 (centres unmarked) [Example 575]
< 500 nM	CC(C)C1NCCc2c1oc1cc(S(=O)(=O)c3cccc(F)c3)ccc21 (centres unmarked) [Example 495]
< 500 nM	O=S(=O)(c1ccc2c(c1)OC1CNCCC21)c1cccc2c1OC(F)(F)O2 (centres unmarked) [Example 469]
> 1000 nM	Cn1cnc(S(=O)(=O)Oc2ccc3c(c2)OC2CNCCC32)c1 (centres unmarked) [Example 639]
< 500 nM	O=S(=O)(Oc1ccc2c(c1)OC1CNCCC21)c1cc2ccccc2o1 (centres unmarked) [Example 655]
< 500 nM	O=S(=O)(c1ccc2c(c1)OC1CNCCC21)c1cccnc1OCC(F)(F)F (centres unmarked) [Example 394]
< 500 nM	CCCCOc1cccc(S(=O)(=O)c2ccc3c(c2)OC2CNCCC32)c1 (centres unmarked) [Example 554]
500 to 1000 nM	O=S(=O)(Nc1cccc(Cl)c1)c1ccc2c(c1)C1CCNCC1O2 (centres unmarked) [Example 853]
< 500 nM	CC(=O)N(C)CCC1NCCc2c1oc1cc(S(=O)(=O)c3cccc(F)c3)ccc21 (racemic) [Example 538, N-(2-{7-[(3-fluorophenyl)sulfonyl]-1,2,3,4-tetrahydro[1]benzofuro[2,3-c]pyridin-1-yl}ethyl)-N-methylacetamide]
> 1000 nM	O=S(=O)(c1cc[n+]([O-])cc1)c1ccc2oc3c(c2c1)CCNC3 [Example 351]
> 1000 nM	CN(C)C(=O)c1c(F)cccc1S(=O)(=O)c1ccc2c3c(oc2c1)CNCC3 [Example 479]
< 500 nM	Cc1c(Cl)cccc1S(=O)(=O)Oc1ccc2c(c1)C1CCNCC1O2 (centres unmarked) [Example 718]
< 500 nM	O=S(=O)(c1cccc(Cl)c1)c1ccc2c3c(oc2c1)C1CCCCN1CC3 (centres unmarked) [Example 620]
< 500 nM	O=S(=O)(Oc1ccc2c(c1)OC1CNCCC21)c1cccc(Cl)c1 (centres unmarked) [Example 653]
< 500 nM	CC(C)Oc1cccc(S(=O)(=O)c2ccc3c(c2)OC2C3CCNC23CCC3)c1 (centres unmarked) [Example 622, 7-{[3-(Propan-2-yloxy)phenyl]sulfonyl}-3,4,4a,9a-tetrahydro-2H-spiro[1-benzofuro[2,3-c]pyridine-1,1′-cyclobutane]hydrochloride]
< 500 nM	O=S(=O)(c1ccccc1)c1ccc2c3c(oc2c1)C1(CCCOC1)NCC3 (single isomer, unassigned) [Example 543, 7-(Phenylsulfonyl)-3,4,5′,6′-tetrahydro-2H,4′H-spiro[1-benzofuro[2,3-c]pyridine-1,3′-pyran]hydrochloride]
> 1000 nM	[O-][S+](c1ccc2oc3c(c2c1)CCNC3)c1cccnc1F (centres unmarked) [Example 444]
